Measurements from patent publication US10323022B2, “Pyrrolidinyl urea, pyrrolidinyl thiourea and pyrrolidinyl guanidine compounds as TrkA kinase inhibitors” (Array BioPharma Inc., priority 2011, dated 2019).

Molecular target: TrkA (Homo sapiens (Human), UniProt P04629)
Assay: TrkA Omnia Assay
Format: biochemical
Details: averaged IC50; 20 nM enzyme, 500 μM ATP, 10 μM peptide substrate
Summary of the method: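 Recombinant TrkA (20 nM) preincubated 10 min at ambient temperature with compound, then Omnia Tyr Peptide #4 (10 μM) and ATP (500 μM) added in 25 mM MOPS pH 7.5, 5 mM MgCl2, 0.005% Triton X-100. Fluorescence (ex 360/em 485 nm) followed continuously for 70 min; IC50 from initial rates by 4- or 5-parameter logistic fit.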

Chain of TrkA (P04629 33-796): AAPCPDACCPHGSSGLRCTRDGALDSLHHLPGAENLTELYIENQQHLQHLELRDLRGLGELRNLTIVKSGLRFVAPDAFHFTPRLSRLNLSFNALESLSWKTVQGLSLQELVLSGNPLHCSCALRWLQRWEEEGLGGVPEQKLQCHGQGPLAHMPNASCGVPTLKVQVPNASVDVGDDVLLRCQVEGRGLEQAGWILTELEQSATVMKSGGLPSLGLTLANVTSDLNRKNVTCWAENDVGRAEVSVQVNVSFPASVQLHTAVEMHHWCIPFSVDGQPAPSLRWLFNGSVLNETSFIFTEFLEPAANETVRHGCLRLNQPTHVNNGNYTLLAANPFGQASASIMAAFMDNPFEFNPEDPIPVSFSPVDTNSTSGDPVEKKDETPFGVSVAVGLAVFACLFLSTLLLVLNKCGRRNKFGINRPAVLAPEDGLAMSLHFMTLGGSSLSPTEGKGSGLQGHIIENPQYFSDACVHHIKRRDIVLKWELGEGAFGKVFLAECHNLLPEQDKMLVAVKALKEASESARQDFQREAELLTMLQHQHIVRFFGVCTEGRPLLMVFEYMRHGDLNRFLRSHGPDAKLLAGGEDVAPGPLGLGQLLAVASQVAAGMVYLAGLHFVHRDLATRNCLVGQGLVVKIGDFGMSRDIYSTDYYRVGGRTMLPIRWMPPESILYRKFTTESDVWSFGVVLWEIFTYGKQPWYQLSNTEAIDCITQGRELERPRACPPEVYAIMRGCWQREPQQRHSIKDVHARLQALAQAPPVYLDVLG

Compound	IC50
COCCN1C[C@@H](NC(=O)Nc2c(C)c(C)nn2-c2ccccc2)[C@H](c2ccc(F)c(F)c2)C1 [Example 92, 1-((3S,4R)-4-(3,4-difluoro-phenyl)-1-(2-methoxyethyl)pyrrolidin-3-yl)-3-(3,4-dimethyl-1-phenyl-1H-pyrazol-5-yl)urea]	< 100 nM
COCCN1C[C@@H](NC(=O)Nc2cc(-c3ccccc3)nn2C)[C@H](c2ccc(F)c(F)c2)C1 [Example 93, 1-((3S,4R)-4-(3,4-difluoro-phenyl)-1-(2-methoxyethyl)pyrrolidin-3-yl)-3-(1-methyl-3-phenyl-1H-pyrazol-5-yl)urea]	< 100 nM
COCCN1C[C@@H](NC(=O)Nc2cc(C(C)(C)CO)nn2-c2ccccc2)[C@H](c2ccccc2)C1 [Example 94, 1-(3-(1-hydroxy-2-methyl-propan-2-yl)-1-phenyl-1H-pyrazol-5-yl)-3-((3S,4R)-1-(2-methoxyethyl)-4-phenylpyrrolidin-3-yl)urea]	100 to 1000 nM
COCCN1C[C@@H](NC(=O)Nc2c3c(nn2-c2ccccc2)C[S+]([O-])C3)[C@H](c2ccccc2)C1 (stereo partly drawn) [Example 95, 1-((3S,4R)-1-(2-methoxy-ethyl)-4-phenylpyrrolidin-3-yl)-3-(5-oxido-2-phenyl-4,6-dihydro-2H-thieno [3,4-c]pyrazol-3-yl)urea]	< 100 nM
COCCN1C[C@@H](NC(=O)Nc2cc(-c3ccncc3)nn2C)[C@H](c2ccccc2)C1 [Example 96, 1-((3S,4R)-1-(2-methoxy-ethyl)-4-phenylpyrrolidin-3-yl)-3-(1-methyl-3-(pyridin-4-yl)-1H-pyrazol-5-yl)urea]	< 100 nM
COCCN1C[C@@H](NC(=O)Nc2cc(-c3ccncc3)nn2C)[C@H](c2ccc(F)c(F)c2)C1 [Example 97, 1-((3S,4R)-4-(3,4-difluorophenyl)-1-(2-methoxyethyl)pyrrolidin-3-yl)-3-(1-methyl-3-(pyridin-4-yl)-1H-pyrazol-5-yl)urea]	< 100 nM
COCCN1C[C@@H](NC(=O)Nc2cc(-c3ccccc3)nn2C)[C@H](c2cc(F)cc(F)c2)C1 [Example 98, 1-((3S,4R)-4-(3,5-difluorophenyl)-1-(2-methoxyethyl)pyrrolidin-3-yl)-3-(1-methyl-3-phenyl-1H-pyrazol-5-yl) urea]	< 100 nM
COCCN1C[C@@H](NC(=O)Nc2cc(-c3cccs3)nn2C)[C@H](c2cc(F)cc(F)c2)C1 [Example 99, 1-((3S,4R)-4-(3,5-difluorophenyl)-1-(2-methoxyethyl)pyrrolidin-3-yl)-3-(1-methyl-3-(thiophen-2-yl)-1H-pyrazol-5-yl)urea]	< 100 nM
COCCN1C[C@@H](NC(=O)Nc2cc(COC)nn2-c2ccccc2)[C@H](c2ccccc2)C1 [Example 100, 1-((3S,4R)-1-(2-methoxy-ethyl)-4-phenylpyrrolidin-3-yl)-3-(3-(methoxy-methyl)-1-phenyl-1H-pyrazol-5-yl)urea]	100 to 1000 nM
COCCN1C[C@@H](NC(=O)Nc2c(C)c(COC)nn2-c2ccccc2)[C@H](c2ccccc2)C1 [Example 101, 1-((3S,4R)-1-(2-methoxy-ethyl)-4-phenylpyrrolidin-3-yl)-3-(3-(methoxy-methyl)-4-methyl-1-phenyl-1H-pyrazol-5-yl) urea]	< 100 nM
COCCN1C[C@@H](NC(=O)Nc2cc(-c3ccc(C)cc3)nn2C)[C@H](c2ccc(F)c(F)c2)C1 [Example 102, 1-((3S,4R)-4-(3,4-difluorophenyl)-1-(2-methoxyethyl)pyrrolidin-3-yl)-3-(1-methyl-3-p-tolyl-1H-pyrazol-5-yl)urea]	< 100 nM
COCCN1C[C@@H](NC(=O)Nc2cc(-c3cccc(C)c3)nn2C)[C@H](c2ccc(F)c(F)c2)C1 [Example 103, 1-((3S,4R)-4-(3,4-difluorophenyl)-1-(2-methoxyethyl)pyrrolidin-3-yl)-3-(1-methyl-3-m-tolyl-1H-pyrazol-5-yl) urea]	< 100 nM
COCCN1C[C@@H](NC(=O)Nc2cc(-c3ccccc3C)nn2C)[C@H](c2ccc(F)c(F)c2)C1 [Example 104, 1-((3S,4R)-4-(3,4-difluorophenyl)-1-(2-methoxyethyl)pyrrolidin-3-yl)-3-(1-methyl-3-o-tolyl-1H-pyrazol-5-yl) urea]	< 100 nM
COCCN1C[C@@H](NC(=O)Nc2cc(-c3cccc(OC)c3)nn2C)[C@H](c2ccc(F)c(F)c2)C1 [Example 105, 1-((3S,4R)-4-(3,4-difluorophenyl)-1-(2-methoxyethyl)pyrrolidin-3-yl)-3-(3-(3-methoxy-phenyl)-1-methyl-1H-pyrazol-5-yl)urea]	< 100 nM
COCCN1C[C@@H](NC(=O)Nc2cc(-c3ccccc3OC)nn2C)[C@H](c2ccc(F)c(F)c2)C1 [Example 106, 1-((3S,4R)-4-(3,4-difluorophenyl)-1-(2-methoxyethyl)pyrrolidin-3-yl)-3-(3-(2-methoxy-phenyl)-1-methyl-1H-pyrazol-5-yl)urea]	100 to 1000 nM
COCCN1C[C@@H](NC(=O)Nc2cc(-c3ccc(F)cc3)nn2C)[C@H](c2ccccc2)C1 [Example 107, 1-(3-(4-fluorophenyl)-1-methyl-1H-pyrazol-5-yl)-3-((3S,4R)-1-(2-methoxy-ethyl)-4-phenylpyrrolidin-3-yl)urea]	< 100 nM
COCCN1C[C@@H](NC(=O)Nc2cc(-c3ccc(OC)cc3)nn2C)[C@H](c2ccccc2)C1 [Example 108, 1-((3S,4R)-1-(2-methoxy-ethyl)-4-phenylpyrrolidin-3-yl)-3-(3-(4-methoxy-phenyl)-1-methyl-1H-pyrazol-5-yl)urea]	< 100 nM
COCCN1C[C@@H](NC(=O)Nc2cc(-c3ccccc3)nn2C)[C@H](c2cccc(C(F)(F)F)c2)C1 [Example 109, 1-((3S,4R)-1-(2-methoxy-ethyl)-4-(3-(trifluoro-methyl)phenyl)pyrrolidin-3-yl)-3-(1-methyl-3-phenyl-1H-pyrazol-5-yl) urea]	100 to 1000 nM
COCCN1C[C@@H](NC(=O)Nc2cc(-c3ccccc3)nn2C)[C@H](c2cccc(F)c2)C1 [Example 110, 1-((3S,4R)-4-(3-fluoro-phenyl)-1-(2-methoxy-ethyl)pyrrolidin-3-yl)-3-(1-methyl-3-phenyl-1H-pyrazol-5-yl)urea]	< 100 nM
COCCN1C[C@@H](NC(=O)Nc2cc(-c3ccccc3)nn2C)[C@H](c2ccc(F)cc2F)C1 [Example 111, 1-((3S,4R)-4-(2,4-difluorophenyl)-1-(2-methoxyethyl)pyrrolidin-3-yl)-3-(1-methyl-3-phenyl-1H-pyrazol-5-yl)urea]	< 100 nM
COCCN1C[C@@H](NC(=O)Nc2cc(-c3ccc(F)cc3)nn2C)[C@H](c2cccc(F)c2)C1 [Example 112, 1-((3S,4R)-4-(3-fluoro-phenyl)-1-(2-methoxy-ethyl)pyrrolidin-3-yl)-3-(3-(4-fluorophenyl)-1-methyl-1H-pyrazol-5-yl)urea]	< 100 nM
COCCN1C[C@@H](NC(=O)Nc2cc(-c3ccc(F)cc3)nn2C)[C@H](c2ccc(F)c(F)c2)C1 [Example 113, 1-((3S,4R)-4-(3,4-difluorophenyl)-1-(2-methoxyethyl)pyrrolidin-3-yl)-3-(3-(4-fluoro-phenyl)-1-methyl-1H-pyrazol-5-yl)urea]	< 100 nM
COCCN1C[C@@H](NC(=O)Nc2cc(-c3cccc(F)c3)nn2C)[C@H](c2ccc(F)c(F)c2)C1 [Example 114, 1-((3S,4R)-4-(3,4-difluorophenyl)-1-(2-methoxyethyl)pyrrolidin-3-yl)-3-(3-(3-fluoro-phenyl)-1-methyl-1H-pyrazol-5-yl)urea]	< 100 nM
COCCN1C[C@@H](NC(=O)Nc2cc(-c3ccccc3F)nn2C)[C@H](c2ccc(F)c(F)c2)C1 [Example 115, 1-((3S,4R)-4-(3,4-difluorophenyl)-1-(2-methoxyethyl)pyrrolidin-3-yl)-3-(3-(2-fluoro-phenyl)-1-methyl-1H-pyrazol-5-yl)urea]	< 100 nM
COCCN1C[C@@H](NC(=O)Nc2c3c(nn2-c2ccccc2)CCC3)[C@H](c2cccc(F)c2)C1 [Example 116, 1-((3S,4R)-4-(3-fluoro-phenyl)-1-(2-methoxy-ethyl)pyrrolidin-3-yl)-3-(2-phenyl-2,4,5,6-tetrahydrocyclopenta [c]pyrazol-3-yl)urea]	< 100 nM
COCCN1C[C@@H](NC(=O)Nc2c(C)c(C(C)(C)CO)nn2-c2ccccc2)[C@H](c2ccccc2)C1 [Example 117, 1-(3-(1-hydroxy-2-methylpropan-2-yl)-4-methyl-1-phenyl-1H-pyrazol-5-yl)-3-((3S,4R)-1-(2-methoxyethyl)-4-phenylpyrrolidin-3-yl) urea]	< 100 nM
COCCN1C[C@@H](NC(=O)Nc2c(C)c(C(C)(C)CO)nn2-c2ccccc2)[C@H](c2ccc(F)c(F)c2)C1 [Example 118, 1-((3S,4R)-4-(3,4-difluorophenyl)-1-(2-methoxyethyl)pyrrolidin-3-yl)-3-(3-(1-hydroxy-2-methylpropan-2-yl)-4-methyl-1-phenyl-1H-pyrazol-5-yl)urea]	< 100 nM
COCCN1C[C@@H](NC(=O)Nc2cc(-c3ccc(Cl)cc3)nn2C)[C@H](c2ccc(F)c(F)c2)C1 [Example 119, 1-(3-(4-chlorophenyl)-1-methyl-1H-pyrazol-5-yl)-3-((3S,4R)-4-(3,4-difluorophenyl)-1-(2-methoxyethyl)pyrrolidin-3-yl)urea]	< 100 nM
COCCN1C[C@@H](NC(=O)Nc2cc(-c3ccc(F)cc3)nn2C)[C@H](c2cc(F)ccc2F)C1 [Example 120, 1-((3S,4R)-4-(2,5-difluorophenyl)-1-(2-methoxyethyl)pyrrolidin-3-yl)-3-(3-(4-fluoro-phenyl)-1-methyl-1H-pyrazol-5-yl)urea]	< 100 nM
COCCN1C[C@@H](NC(=O)Nc2cc(-c3ccc(C(=O)OC)cc3)nn2C)[C@H](c2ccc(F)c(F)c2)C1 [Example 121, methyl 4-(5-(3-((3S,4R)-4-(3,4-difluorophenyl)-1-(2-methoxyethyl)pyrrolidin-3-yl)ureido)-1-methyl-1H-pyrazol-3-yl)benzoate]	< 100 nM
